# Laboratory results from patent US20220323548A1 (priority 2019, published 2022).
# No end group written: not given here. *: point of attachment. undeca‑saccharide = not defined here; Decanoyl = CCCCCCCCCC(=O)*
# Legend:
# human GLP-1R [1] = target: human GLP-1R (Homo sapiens, UniProt P43220); assay: GLP-1 receptor luciferase reporter assay (part I, glycosylated analogs); type: cell-based; details: CV-1 cells transfected with human GLP-1R and CRE, Table 2
# Protocol: Specifically, the fibroblast cell line CV-1 (1×10^4 cells/ml, Korea Cell Line Bank) was cultured on a 96-well white cell culture plate for 24 hours, and then human GLP-1R (pcDNA3.1_hGLP-1R) and cAMP response element (CRE, pcDNA3.1_hCRE) were added to perform transfection. After 24 hours, the medium was exchanged with a serum-free medium, followed by culture for 16 hours, and then each analog was treated for 6 hours. The expression level of luciferase, a reporter gene, by activated GLP-1R, was quantified by a luminometer, and the results are shown in Table 2.
# rat islets = assay: Glucose-dependent insulin secretion from rat islets, rat insulin ELISA (part I); type: cell-based; details: 28 mM glucose
# Description: Specifically, the pancreas of 8-week-old SD rats (Damul Science) was extracted, and islets were isolated.
# Solubility by HPLC = type: physicochemical; details: at 10 mg/ml
# human GLP-1R [2] = target: human GLP-1R (human, UniProt P43220 24-463); assay: cell-based or functional assay
# Sequence of human GLP-1R (Homo sapiens, UniProt P43220) (P43220 24-463): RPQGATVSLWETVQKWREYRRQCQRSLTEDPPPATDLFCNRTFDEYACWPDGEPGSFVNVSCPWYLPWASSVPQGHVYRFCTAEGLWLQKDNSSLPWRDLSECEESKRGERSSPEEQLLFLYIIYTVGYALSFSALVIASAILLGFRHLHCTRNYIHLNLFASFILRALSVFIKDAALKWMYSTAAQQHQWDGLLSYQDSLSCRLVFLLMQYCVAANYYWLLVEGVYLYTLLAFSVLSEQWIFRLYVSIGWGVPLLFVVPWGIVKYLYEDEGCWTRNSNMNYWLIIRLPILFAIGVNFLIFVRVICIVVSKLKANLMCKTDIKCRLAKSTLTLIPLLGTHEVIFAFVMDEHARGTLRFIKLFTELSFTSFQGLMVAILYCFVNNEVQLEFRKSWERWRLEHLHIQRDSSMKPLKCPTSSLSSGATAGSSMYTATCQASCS
Molecule,Emax (fold induction over basal) (human GLP-1R [1]),"Insulin secretion from rat islets (rat islets; 10 nM analog, Table 4) [pg/mL]","Insulin secretion from rat islets (rat islets; 100 nM analog, Table 4) [pg/mL]","Emax (fold induction over basal), CRE-luciferase reporter (human GLP-1R [2]) [fold induction over basal]",further results
CCCCCCCCCC(=O)NCCCC[C@H](NC(=O)[C@H](CO)NC(=O)[C@@H]1CCCN1C(=O)CNC(=O)CNC(=O)[C@H](CC(N)=O)NC(=O)[C@H](CCCCN)NC(=O)[C@H](CC(C)C)NC(=O)[C@H](Cc1c[nH]c2ccccc12)NC(=O)[C@H](CSCC(=O)N[C@@H]1O[C@H](CO)[C@@H](O[C@@H]2O[C@H](CO)[C@@H](O[C@@H]3O[C@H](CO[C@H]4O[C@H](CO)[C@@H](O)[C@H](O)[C@@H]4O[C@@H]4O[C@H](CO)[C@@H](O[C@@H]5O[C@H](CO[C@]6(C(=O)OCc7ccccc7)C[C@H](O)[C@@H](NC(C)=O)[C@H]([C@H](O)[C@H](O)CO)O6)[C@H](O)[C@H](O)[C@H]5O)[C@H](O)[C@H]4NC(C)=O)[C@@H](O)[C@H](O[C@H]4O[C@H](CO)[C@@H](O)[C@H](O)[C@@H]4O[C@@H]4O[C@H](CO)[C@@H](O[C@@H]5O[C@H](CO[C@]6(C(=O)OCc7ccccc7)C[C@H](O)[C@@H](NC(C)=O)[C@H]([C@H](O)[C@H](O)CO)O6)[C@H](O)[C@H](O)[C@H]5O)[C@H](O)[C@H]4NC(C)=O)[C@@H]3O)[C@H](O)[C@H]2NC(C)=O)[C@H](O)[C@H]1NC(C)=O)NC(=O)[C@@H](NC(=O)[C@H](Cc1ccccc1)NC(=O)[C@H](CC(C)C)NC(=O)[C@H](CCCNC(=N)N)NC(=O)[C@@H](NC(=O)[C@H](C)NC(=O)[C@H](CSCC(=O)N[C@@H]1O[C@H](CO)[C@@H](O[C@@H]2O[C@H](CO)[C@@H](O[C@@H]3O[C@H](CO[C@H]4O[C@H](CO)[C@@H](O)[C@H](O)[C@@H]4O[C@@H]4O[C@H](CO)[C@@H](O[C@@H]5O[C@H](CO[C@]6(C(=O)OCc7ccccc7)C[C@H](O)[C@@H](NC(C)=O)[C@H]([C@H](O)[C@H](O)CO)O6)[C@H](O)[C@H](O)[C@H]5O)[C@H](O)[C@H]4NC(C)=O)[C@@H](O)[C@H](O[C@H]4O[C@H](CO)[C@@H](O)[C@H](O)[C@@H]4O[C@@H]4O[C@H](CO)[C@@H](O[C@@H]5O[C@H](CO[C@]6(C(=O)OCc7ccccc7)C[C@H](O)[C@@H](NC(C)=O)[C@H]([C@H](O)[C@H](O)CO)O6)[C@H](O)[C@H](O)[C@H]5O)[C@H](O)[C@H]4NC(C)=O)[C@@H]3O)[C@H](O)[C@H]2NC(C)=O)[C@H](O)[C@H]1NC(C)=O)NC(=O)[C@H](CCC(=O)O)NC(=O)[C@H](CCC(=O)O)NC(=O)[C@H](CCSC)NC(=O)[C@H](CCC(N)=O)NC(=O)[C@H](CCCCN)NC(=O)[C@H](CO)NC(=O)[C@H](CC(C)C)NC(=O)[C@H](CC(=O)O)NC(=O)[C@H](CO)NC(=O)[C@@H](NC(=O)[C@H](Cc1ccccc1)NC(=O)[C@@H](NC(=O)CNC(=O)[C@H](CCC(=O)O)NC(=O)CNC(=O)[C@@H](N)Cc1c[nH]cn1)[C@@H](C)O)[C@@H](C)O)C(C)C)[C@@H](C)CC)C(=O)O [AGM-212(E17C-11 sugar & E24C-11 sugar)],9.7 ± 1.2,6763.40 ± 32.83,14650.94 ± 3305.28,–,–
CCCCCCCCCC(=O)NCCCC[C@H](NC(=O)[C@H](CO)NC(=O)[C@@H]1CCCN1C(=O)CNC(=O)CNC(=O)[C@H](CSCC(=O)N[C@@H]1O[C@H](CO)[C@@H](O[C@@H]2O[C@H](CO)[C@@H](O[C@@H]3O[C@H](CO[C@H]4O[C@H](CO)[C@@H](O)[C@H](O)[C@@H]4O[C@@H]4O[C@H](CO)[C@@H](O[C@@H]5O[C@H](CO[C@]6(C(=O)OCc7ccccc7)C[C@H](O)[C@@H](NC(C)=O)[C@H]([C@H](O)[C@H](O)CO)O6)[C@H](O)[C@H](O)[C@H]5O)[C@H](O)[C@H]4NC(C)=O)[C@@H](O)[C@H](O[C@H]4O[C@H](CO)[C@@H](O)[C@H](O)[C@@H]4O[C@@H]4O[C@H](CO)[C@@H](O[C@@H]5O[C@H](CO[C@]6(C(=O)OCc7ccccc7)C[C@H](O)[C@@H](NC(C)=O)[C@H]([C@H](O)[C@H](O)CO)O6)[C@H](O)[C@H](O)[C@H]5O)[C@H](O)[C@H]4NC(C)=O)[C@@H]3O)[C@H](O)[C@H]2NC(C)=O)[C@H](O)[C@H]1NC(C)=O)NC(=O)[C@H](CCCCN)NC(=O)[C@H](CC(C)C)NC(=O)[C@H](Cc1c[nH]c2ccccc12)NC(=O)[C@H](CCC(=O)O)NC(=O)[C@@H](NC(=O)[C@H](Cc1ccccc1)NC(=O)[C@H](CC(C)C)NC(=O)[C@H](CCCNC(=N)N)NC(=O)[C@@H](NC(=O)[C@H](C)NC(=O)[C@H](CSCC(=O)N[C@@H]1O[C@H](CO)[C@@H](O[C@@H]2O[C@H](CO)[C@@H](O[C@@H]3O[C@H](CO[C@H]4O[C@H](CO)[C@@H](O)[C@H](O)[C@@H]4O[C@@H]4O[C@H](CO)[C@@H](O[C@@H]5O[C@H](CO[C@]6(C(=O)OCc7ccccc7)C[C@H](O)[C@@H](NC(C)=O)[C@H]([C@H](O)[C@H](O)CO)O6)[C@H](O)[C@H](O)[C@H]5O)[C@H](O)[C@H]4NC(C)=O)[C@@H](O)[C@H](O[C@H]4O[C@H](CO)[C@@H](O)[C@H](O)[C@@H]4O[C@@H]4O[C@H](CO)[C@@H](O[C@@H]5O[C@H](CO[C@]6(C(=O)OCc7ccccc7)C[C@H](O)[C@@H](NC(C)=O)[C@H]([C@H](O)[C@H](O)CO)O6)[C@H](O)[C@H](O)[C@H]5O)[C@H](O)[C@H]4NC(C)=O)[C@@H]3O)[C@H](O)[C@H]2NC(C)=O)[C@H](O)[C@H]1NC(C)=O)NC(=O)[C@H](CCC(=O)O)NC(=O)[C@H](CCC(=O)O)NC(=O)[C@H](CCSC)NC(=O)[C@H](CCC(N)=O)NC(=O)[C@H](CCCCN)NC(=O)[C@H](CO)NC(=O)[C@H](CC(C)C)NC(=O)[C@H](CC(=O)O)NC(=O)[C@H](CO)NC(=O)[C@@H](NC(=O)[C@H](Cc1ccccc1)NC(=O)[C@@H](NC(=O)CNC(=O)[C@H](CCC(=O)O)NC(=O)CNC(=O)[C@@H](N)Cc1c[nH]cn1)[C@@H](C)O)[C@@H](C)O)C(C)C)[C@@H](C)CC)C(=O)O [AGM-212(E17C-11 sugar & N28C-11 sugar)],9.8 ± 1.3,11250.94 ± 624.53,22183.40 ± 830.19,–,solubility (Solubility by HPLC; H2O): < 8300 µg/mL; solubility (Solubility by HPLC; PBS): < 9500 µg/mL
CCCCCCCCCC(=O)NCCCC[C@H](NC(=O)[C@H](CO)NC(=O)[C@@H]1CCCN1C(=O)CNC(=O)CNC(=O)[C@H](CC(N)=O)NC(=O)[C@H](CCCCN)NC(=O)[C@H](CC(C)C)NC(=O)[C@H](Cc1c[nH]c2ccccc12)NC(=O)[C@H](CCC(=O)O)NC(=O)[C@@H](NC(=O)[C@H](Cc1ccccc1)NC(=O)[C@H](CC(C)C)NC(=O)[C@H](CCCNC(=N)N)NC(=O)[C@@H](NC(=O)[C@H](C)NC(=O)[C@H](CSCC(=O)N[C@@H]1O[C@H](CO)[C@@H](O[C@@H]2O[C@H](CO)[C@@H](O[C@@H]3O[C@H](CO[C@H]4O[C@H](CO)[C@@H](O)[C@H](O)[C@@H]4O[C@@H]4O[C@H](CO)[C@@H](O[C@@H]5O[C@H](CO[C@]6(C(=O)OCc7ccccc7)C[C@H](O)[C@@H](NC(C)=O)[C@H]([C@H](O)[C@H](O)CO)O6)[C@H](O)[C@H](O)[C@H]5O)[C@H](O)[C@H]4NC(C)=O)[C@@H](O)[C@H](O[C@H]4O[C@H](CO)[C@@H](O)[C@H](O)[C@@H]4O[C@@H]4O[C@H](CO)[C@@H](O[C@@H]5O[C@H](CO[C@]6(C(=O)OCc7ccccc7)C[C@H](O)[C@@H](NC(C)=O)[C@H]([C@H](O)[C@H](O)CO)O6)[C@H](O)[C@H](O)[C@H]5O)[C@H](O)[C@H]4NC(C)=O)[C@@H]3O)[C@H](O)[C@H]2NC(C)=O)[C@H](O)[C@H]1NC(C)=O)NC(=O)[C@H](CCC(=O)O)NC(=O)[C@H](CCC(=O)O)NC(=O)[C@H](CCSC)NC(=O)[C@H](CCC(N)=O)NC(=O)[C@H](CCCCN)NC(=O)[C@H](CO)NC(=O)[C@H](CC(C)C)NC(=O)[C@H](CC(=O)O)NC(=O)[C@H](CO)NC(=O)[C@@H](NC(=O)[C@H](Cc1ccccc1)NC(=O)[C@@H](NC(=O)CNC(=O)[C@H](CCC(=O)O)NC(=O)CNC(=O)[C@@H](N)Cc1c[nH]cn1)[C@@H](C)O)[C@@H](C)O)C(C)C)[C@@H](C)CC)C(=O)O [AGM-212(E17C-11 sugar)],10.1 ± 1.2,–,–,–,"Insulin secretion from rat islets (rat islets; 10 nM analog, Table 3): 7895.09 ± 2457.36 pg/mL; Insulin secretion from rat islets (rat islets; 100 nM analog, Table 3): 9523.02 ± 2852.08 pg/mL"
HGEGTFTSDLSKQMEEC(undeca‑saccharide)AVRLFIEWLKNGGPSK(Decanoyl) (reading uncertain) [AGM-212(E17C-11 sugar)],–,–,–,10.1,–
HGEGTFTSDLSKQMEEC(undeca‑saccharide)AVRLFIEWLKC(undeca‑saccharide)GGPSK(Decanoyl) (reading uncertain) [AGM-212(E17C-11 sugar & N28C-11 sugar)],–,–,–,9.8,–
HGEGTFTSDLSKQMEEC(undeca‑saccharide)AVRLFIC(undeca‑saccharide)WLKNGGPSK(Decanoyl) (reading uncertain) [AGM-212(E17C-11 sugar & E24C-11 sugar)],–,–,–,9.7,–
